Earlier results as cited in PMC4303313 (Biochemistry, 2014).

Key:
[1] = target: T1, reduced RfBP (Gallus gallus, UniProt P02752); details: no GSH
T1 sequence (P02752 18-238): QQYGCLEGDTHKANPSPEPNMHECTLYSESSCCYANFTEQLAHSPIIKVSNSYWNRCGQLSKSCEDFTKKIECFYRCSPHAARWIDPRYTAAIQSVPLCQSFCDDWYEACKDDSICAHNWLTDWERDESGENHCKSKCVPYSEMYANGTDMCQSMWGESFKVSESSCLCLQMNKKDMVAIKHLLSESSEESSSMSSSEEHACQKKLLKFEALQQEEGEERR

[2] = target: T2, reduced RNase (Bos taurus, UniProt P61823)
T2 sequence (P61823 27-150): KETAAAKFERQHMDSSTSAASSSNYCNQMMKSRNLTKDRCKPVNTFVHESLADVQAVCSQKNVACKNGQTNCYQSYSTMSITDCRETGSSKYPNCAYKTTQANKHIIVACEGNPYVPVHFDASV

Compound: C[As](O)O [MMA]
- effect on ability of reoxidized RfBP to rebind riboflavin [1]: profoundly attenuated
- formation of filamentous deposits from reduced RNase ([2]; no GSH): led to the formation of filamentous deposits
- formation of aggregates from reduced RNase ([2]; reduced RNase and GSH): do not appear
